As a reminder, the IC50 is the concentration at which inhibition is half-maximal.

These results are taken from US20090088380A1, “GHRH ANALOGS AND THERAPEUTIC USES THEREOF” (priority 2007, published 2009).

Series [1] in a line: In vitro proteolysis assay in rat serum. In kind it is in vitro ADME. Particulars: incubation 0 min.
Procedure: (§1) Proteolysis was stopped by adding 800 μl of ice-cold stop buffer (potassium-phosphate buffer, acidified to pH 0.8 with trifluoroacetic acid (TFA) and boiling 5 min (rat serum only). After centrifugation (12000 g, 5 min, 4° C.) (rat serum only), serum-peptide mixtures were passed through a conditioned Sep-Pak C-18 cartridge to extract native GHRH or a GHRH analog residual concentrations from serum proteins. The native GHRH or the analog was eluted in 2 ml of 50% acetonitrile-0.01% TFA/50% 0.01% aqueous TFA. 200 μl of extracted peptide, representing 1 μg of GHRH or analog at time 0, was quantified by analytical HPLC, using one μ-Bondapak C18 column (10 μm particle size, 0.39×15 cm) (rat serum) or two C18 columns in series (human serum and plasma) and a binary solvent system composed of NaClO4 0.01 M, pH 2.5 and acetonitrile. A linear gradient from 30 to 60% acetonitrile over 45 min (rat serum) or 30 to 50% (human serum and plasma) was used. Elution of intact peptide was monitored at 214 nm and residual concentration determined by assessment of peak surface areas.
Series [2] in a line: In vitro proteolysis assay in human serum. It counts as in vitro ADME. Particulars: human serum.
Procedure: as §1
For series [3], the target named is human GHRH receptor (human) (UniProt Q02643). Nature of the series: competition with [125I-Tyr10]hGHRH(1-44)NH2, BHK cell membrane preparations expressing the human GHRH receptor. The following applies: for Relative binding affinity (R1) in comparison with hGHRH(1-29)NH2: scale: ratio IC50 of hGHRH.
The next series deals with rat GHRH receptor (rat) (UniProt Q02644). Briefly: competition with [125I-Tyr10]hGHRH(1-44)-NH2, rat anterior pituitary membrane preparations.
A further series deals with Rat Growth Hormone. Briefly: In vivo GH secretion in adult female Sprague-Dawley rats, single SC or IV injection, RIA. The following applies: 0.03 mg/kg BW IV. Here is the method: In order to assess such use of the GHRH analogs, the following experiments were undertaken. More specially, the goal was to assess the pharmacodynamic and pharmacokinetic profiles and acute toxicity of GHRH analog #5 when administered once by subcutaneous or intravenous injection to female Sprague-Dawley rats followed by a 14-day observation period and the pharmacodynamic profile in a male Beagle dog when the GHRH analog was administered at escalating doses to the same dog by subcutaneous injection with at least 2-day washout period. The above GHRH analog is a variation of a synthetic acetate salt of an amidated synthetic 29-amino acid peptide that corresponds to the amino-terminal segment of the naturally-occurring human growth hormone—releasing hormone (GHRH) with four amino acid substitutions in positions 2, 10, 15, and 22.
Human GHRH analog #5 in 0.9% sodium chloride for injection USP was administered once either by intravenous (IV) or subcutaneous (SC) injection to female rats followed by a 14-day observation period, as shown in Table 2. Prior to administration, all dosing formulations were filtered using a 0.22 μm filter to ensure sterility. The actual amount of GHRH analog #5 administered was calculated and adjusted based on the animal's most recent body weight. Dosing started at approximately the same time each day, commencing at 9:00 am ±30 minutes.
For pharmacodynamic investigations, blood samples (approximately 1.3 ml) were collected from 2 animals per group per time point (maximum 3 time points/animal) via a jugular venipuncture at the following time points: […] All blood samples were collected into potassium EDTA tubes and centrifuged under refrigeration (2 to 8° C., 1500 g for 10 minutes).
Rat Growth Hormone Determination • Plasma GH was determined by Linco Diagnostic Services using their own kit. Linco's Rat Growth Hormone radioimmunoassay kit (RIA) (RGH-45HK) is intended for the quantitative determination of Rat Growth Hormone in serum, plasma, and tissue culture media. It is a completely homologous assay since the antibody was raised against recombinant Rat Growth Hormone and both the tracer and the standard are prepared with the same recombinant Rat Growth Hormone. The kit includes standards, antibody, tracer, quality controls, precipitating reagents and buffer necessary to complete a RIA. The assay was conducted under the following conditions: overnight; equilibrium incubation at room temperature; sample volume: 100 μl serum, plasma, or cell culture media. The label used was 125I-Rat Growth Hormone (20,000 CPM/tube).

The next series has as its system Canine Growth Hormone. Briefly: In vivo GH secretion in a male Beagle dog, escalating SC doses, RIA. The following applies: 0.01 mg/kg BW SC. From the text: In order to assess such use of the GHRH analogs, the following experiments were undertaken. […] The above GHRH analog is a variation of a synthetic acetate salt of an amidated synthetic 29-amino acid peptide that corresponds to the amino-terminal segment of the naturally-occurring human growth hormone—releasing hormone (GHRH) with four amino acid substitutions in positions 2, 10, 15, and 22.
Prior to administration, all dosing formulations were filtered using a 0.22 μm filter to ensure sterility. […] Dosing started at approximately the same time each day, commencing at 9:00 am ±30 minutes.
For pharmacodynamic investigations, blood samples (approximately 1.0 ml) were collected from the dog on each treatment day via a jugular venipuncture at the following time points: pre-dose, 7, 15, 22, 30, 45, and 60 minutes post dosing. All blood samples were collected into potassium EDTA tubes and centrifuged under refrigeration (2 to 8° C., 1500 g for 10 minutes).
Plasma GH was determined by Linco Diagnostic Services using their own kit. Linco's Porcine/Canine Growth Hormone radioimmunoassay kit (RIA) (PGH-46HK) has been developed to quantitate Growth Hormone in plasma, serum, and tissue culture media. It is a completely homologous assay since the antibody was raised against recombinant Porcine Growth Hormone and both the standard and tracer are prepared with recombinant Porcine Growth Hormone. Since the amino acid sequences of Porcine Growth Hormone and Canine Growth Hormone are identical, this assay developed for Porcine Growth Hormone measures Canine Growth Hormone levels with equal efficiency. All components are included (standards, antibody, tracer, quality controls, precipitating reagents and buffer) necessary to complete a RIA. The assay was conducted under the following conditions: overnight; equilibrium incubation at room temperature; sample volume: 100 μl serum, plasma, or cell culture media.

In the case of `CC[C@H](C)[C@H](NC(=O)[C@H](C)NC(=O)[C@H](CC(=O)O)NC(=O)[C@H](C)NC(=O)[C@@H](N)Cc1ccc(O)cc1)C(=O)N[C@@H](Cc1ccccc1)C(=O)N[C@H](C(=O)N[C@@H](CC(N)=O)C(=O)N[C@@H](CO)C(=O)N[C@@H](Cc1ccc(O)cc1)C(=O)N[C@@H](CCCNC(=N)N)C(=O)N[C@@H](CCCCN)C(=O)N[C@H](C(=O)N[C@@H](CC(C)C)C(=O)NCC(=O)N[C@@H](CCC(N)=O)C(=O)N[C@@H](CC(C)C)C(=O)N[C@@H](CO)C(=O)N[C@@H](C)C(=O)N[C@@H](CCCNC(=N)N)C(=O)N[C@@H](CCCCN)C(=O)N[C@@H](CC(C)C)C(=O)N[C@@H](CC(C)C)C(=O)N[C@@H](CCC(N)=O)C(=O)N[C@@H](CC(=O)O)C(=O)N[C@H](C(=O)N[C@@H](CCSC)C(=O)N[C@@H](CO)C(=O)N[C@@H](CCCNC(=N)N)C(N)=O)[C@@H](C)CC)C(C)C)[C@@H](C)O` [hGHRH(1-29)NH2, reference compound], the “Residual concentration (% of initial concentration)” value in series [1] is given as 100 ± 0 % of initial concentration. The “Mean residual amount (%)” value in series [2] (IT 0 min) is 100%; in series [2] (IT 420 min), “disappeared totally”.

For the compound “[Ala8, Ala9, Ala15, Ala22] hGHRH(1-29)-NH2 (peptide)”, in series [3], the IC50 came to 0.77 nM and the Relative binding affinity (R1) in comparison with hGHRH(1-29)NH2 was 3.7. For the same compound, in the series with rat GHRH receptor (rat), the Relative binding affinity in rat anterior pituitary (relative to hGHRH(1-29)-NH2) worked out at 7.74.

Regarding “[D-Ala2, Ala8, Ala15, Lys22] hGHRH(1-29)-NH2 (peptide)”, in series [3], the IC50 was 0.033 nM and the Relative binding affinity (R1) in comparison with hGHRH(1-29)NH2 is 499. This compound yielded a Relative binding affinity in rat anterior pituitary (relative to hGHRH(1-29)-NH2) with rat GHRH receptor (rat) of 13.3.

Regarding “[D-Ala2, Ala8, D-Tyr10, Ala15, D-Lys21, Lys22] hGHRH(1-29)-NH2 (peptide)”, in series [3], the IC50 was 37 nM and the Relative binding affinity (R1) in comparison with hGHRH(1-29)NH2 stood at 0.05. For the same compound, the Relative binding affinity in rat anterior pituitary (relative to hGHRH(1-29)-NH2) with rat GHRH receptor (rat) was 5.

On to “[D-Ala2, D-Tyr10, Lys22] hGHRH(1-29)-NH2 (peptide)”, for which, in series [3], the IC50 was determined as 0.0063 nM and the Relative binding affinity (R1) in comparison with hGHRH(1-29)NH2 came out at 239. This compound displayed a Relative binding affinity in rat anterior pituitary (relative to hGHRH(1-29)-NH2) in the series with rat GHRH receptor (rat) of 4.9.

For hGHRH(1-44)NH2 [reference compound], the “Plasma Rat Growth Hormone” value worked out at 43.7 ng/mL in the series with Rat Growth Hormone (4 min); 83.9 ng/mL in the series on Rat Growth Hormone (10 min); 27.9 ng/mL in the series on Rat Growth Hormone (15 min); 14.1 ng/mL with Rat Growth Hormone (45 min); 21.7 ng/mL with Rat Growth Hormone (300 min); 20.2 ng/mL in the series on Rat Growth Hormone (−120 min). The “GH AUC 45 min” value with Rat Growth Hormone (in ng·min/mL (unit assumed)) came to 1380. Moreover, the “GH AUC 300 min” value with Rat Growth Hormone (in ng·min/mL (unit assumed)) came to 5754. The “Canine Growth Hormone” value came to 5 ng/mL with Canine Growth Hormone (0 min); 1 ng/mL in the series on Canine Growth Hormone (7 min); 1.99 ng/mL in the series on Canine Growth Hormone (15 min); 4 ng/mL in the series with Canine Growth Hormone (22 min); 5 ng/mL in the series on Canine Growth Hormone (30 min); 3 ng/mL in the series with Canine Growth Hormone (45 min). Further, the “Canine Growth Hormone” value in the series on Canine Growth Hormone (60 min) worked out at 1.99 ng/mL.
